Drawing on patent US7605163B2, “Benzoyl-piperazine derivatives” (Hoffmann-La Roche Inc., priority 2003, dated 2009), this text covers IC50 for 47 compounds.

The assay has as its target T1, mGlyT-1b (Mus musculus, UniProt P28571).
T1 construct: host or cells: Flp-in-CHO cells
T1 sequence (P28571 1-651 isoform P28571-2): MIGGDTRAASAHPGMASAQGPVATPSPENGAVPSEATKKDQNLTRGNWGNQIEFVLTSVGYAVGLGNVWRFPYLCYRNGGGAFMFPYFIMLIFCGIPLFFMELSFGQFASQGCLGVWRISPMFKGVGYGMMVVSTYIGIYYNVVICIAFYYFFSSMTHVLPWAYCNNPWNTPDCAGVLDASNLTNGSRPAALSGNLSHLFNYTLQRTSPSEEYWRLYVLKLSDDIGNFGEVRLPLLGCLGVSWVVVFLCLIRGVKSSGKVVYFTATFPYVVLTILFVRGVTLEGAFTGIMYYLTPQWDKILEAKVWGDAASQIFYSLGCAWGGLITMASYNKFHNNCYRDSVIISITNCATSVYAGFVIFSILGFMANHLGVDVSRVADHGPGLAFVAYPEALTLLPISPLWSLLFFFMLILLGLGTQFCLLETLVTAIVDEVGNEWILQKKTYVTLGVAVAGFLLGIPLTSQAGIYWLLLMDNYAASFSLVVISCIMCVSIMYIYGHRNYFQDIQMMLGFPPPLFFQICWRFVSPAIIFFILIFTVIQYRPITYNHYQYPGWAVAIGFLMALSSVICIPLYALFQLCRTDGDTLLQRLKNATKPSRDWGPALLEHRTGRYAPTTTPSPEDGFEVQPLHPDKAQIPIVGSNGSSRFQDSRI
Put plainly: Glycine Uptake Inhibition Assay (mGlyT-1b). In kind it is cell-based. As to conditions: [3H]-glycine uptake inhibition at GlyT-1, Flp-in-CHO cells transfected with mGlyT-1b cDNA. On the procedure: DMEM complete medium: Nutrient mixture F-12 (Gibco Life-technologies), fetal bovine serum (FBS) 5%, (Gibco life technologies), Penicillin/Streptomycin 1% (Gibco life technologies), Hygromycin 0.6 mg/ml (Gibco life technologies), Glutamine 1 mM Gibco life technologies)
Uptake buffer (UB): 150 mM NaCl, 10 mM Hepes-Tris, pH 7.4, 1 mM CaCl2, 2.5 mM KCl, 2.5 mM MgSO4, 10 mM (+) D-glucose. Flp-in™-CHO (Invitrogen Cat n^o R758-07) cells stably transfected with mGlyT1b cDNA.
Glycine Uptake Inhibition Assay (mGlyT-1b)
On day 1 mammalian cells, (Flp-in™-CHO), transfected with mGlyT-1b cDNA, were plated at the density of 40,000 cells/well in complete F-12 medium, without hygromycin in 96-well culture plates. On day 2, the medium was aspirated, and the cells were washed twice with uptake buffer (UB). The cells were then incubated for 20 min at 22° C. with either (i) no potential competitor, (ii) 10 mM non-radioactive glycine, (iii) a concentration of a potential inhibitor. A range of concentrations of the potential inhibitor was used to generate data for calculating the concentration of inhibitor resulting in 50% of the effect (e.g. IC50, the concentration of the competitor inhibiting glycine uptake of 50%).
A solution was then immediately added containing [^3H]-glycine 60 nM (11-16 Ci/mmol) and 25 μM non-radioactive glycine. The plates were incubated with gentle shaking, and the reaction was stopped by aspiration of the mixture and washing (three times) with ice-cold UB. The cells were lysed with scintillation liquid, shaken 3 hours and the radioactivity in the cells counted using a scintillation counter.
Compound `CS(=O)(=O)c1ccc(OCC2CCC2)c(C(=O)N2CCN(c3ccc(C(F)(F)F)cc3)CC2)c1` [compound 139] registered an IC50 of 0.024 µM.
`CC(=O)c1ccc(N2CCN(C(=O)c3cc(S(C)(=O)=O)ccc3OCC3CCC3)CC2)c(F)c1` [compound 142]: the IC50 was determined as 0.034 µM.
`CS(=O)(=O)c1ccc(OCC2CCC2)c(C(=O)N2CCN(c3ccc(C(F)(F)F)cc3C#N)CC2)c1` [compound 144] came in with an IC50 of 0.045 µM.
`CS(=O)(=O)c1ccc(OCC2CCC2)c(C(=O)N2CCN(c3ccc(C#N)c(F)c3F)CC2)c1` [compound 145] registered an IC50 of 0.015 µM.
In turn, `CS(=O)(=O)c1ccc(OCC2CCC2)c(C(=O)N2CCN(c3cc(F)c(C#N)cc3F)CC2)c1` [compound 146] registered an IC50 of 0.019 µM.
Take `CS(=O)(=O)c1ccc(OCC2CCC2)c(C(=O)N2CCN(c3c(F)cc(C#N)cc3F)CC2)c1` [compound 147]: half-maximal inhibition (IC50) required 0.031 µM.
For the compound `CS(=O)(=O)c1ccc(OCC2CCC2)c(C(=O)N2CCN(c3cc(F)c(C#N)c(F)c3)CC2)c1` [compound 148], the IC50 turned out to be 0.036 µM.
For the compound `CC(C)COc1ccc(S(C)(=O)=O)cc1C(=O)N1CCN(c2c(F)cc(C#N)cc2F)CC1` [compound 164], the half-inhibitory concentration (IC50) was determined as 0.019 µM.
With `CS(=O)(=O)c1ccc(OCC2CC2)c(C(=O)N2CCN(c3c(F)cc(C#N)cc3F)CC2)c1` [compound 165] the figure was 0.47 µM; with `CS(=O)(=O)c1ccc(OC2CCCC2)c(C(=O)N2CCN(c3c(F)cc(C#N)cc3F)CC2)c1` [compound 167], 0.016 µM.
The compound `CC(C)COc1ccc(S(C)(=O)=O)cc1C(=O)N1CCN(c2cc(F)c(C#N)c(F)c2)CC1` [compound 169] yielded an IC50 of 0.012 µM.
With `CS(=O)(=O)c1ccc(OCC2CC2)c(C(=O)N2CCN(c3cc(F)c(C#N)c(F)c3)CC2)c1` [compound 170] the figure was 0.031 µM; with `CS(=O)(=O)c1ccc(OC2CCCC2)c(C(=O)N2CCN(c3cc(F)c(C#N)c(F)c3)CC2)c1` [compound 172], 0.019 µM; with `CS(=O)(=O)c1ccc(OCC(F)(F)C(F)(F)F)c(C(=O)N2CCN(c3ccc(C#N)c(F)c3)CC2)c1` [compound 180], 0.036 µM.
In the case of `CS(=O)(=O)c1ccc(OCC(F)(F)C(F)(F)F)c(C(=O)N2CCN(c3ccc(C(F)(F)F)cc3)CC2)c1` [compound 182], the IC50 came to 0.03 µM.
With `CS(=O)(=O)c1ccc(OCC(F)(F)C(F)(F)F)c(C(=O)N2CCN(c3ccc(C#N)c(F)c3F)CC2)c1` [compound 184] the figure was 0.022 µM; with `CS(=O)(=O)c1ccc(OCC(F)(F)C(F)(F)F)c(C(=O)N2CCN(c3c(F)cc(C#N)cc3F)CC2)c1` [compound 186], 0.048 µM; with `CS(=O)(=O)c1ccc(OC(CF)CF)c(C(=O)N2CCN(c3ccc(C(F)(F)F)cc3C#N)CC2)c1` [compound 194], 0.047 µM.
As to `CC(C)(C)Oc1ccc(S(C)(=O)=O)cc1C(=O)N1CCN(c2ccc(C#N)c(F)c2F)CC1` [compound 196], the IC50 was determined as 0.041 µM.
The figure for `CC(C)Oc1ccc(S(C)(=O)=O)cc1C(=O)N1CCN(c2ccc(Cl)cc2C#N)CC1` [compound 202] is 0.024 µM; for `CS(=O)(=O)c1ccc(OCC(F)(F)C(F)F)c(C(=O)N2CCN(c3ccc(C#N)c(F)c3)CC2)c1` [compound 209] it is 0.041 µM.
`CS(=O)(=O)c1ccc(OCC(F)(F)C(F)F)c(C(=O)N2CCN(c3ccc(C#N)cc3F)CC2)c1` [compound 210] came in with an IC50 of 0.039 µM.
The figure for `CS(=O)(=O)c1ccc(OCC(F)(F)C(F)F)c(C(=O)N2CCN(c3ccc(C(F)(F)F)cc3)CC2)c1` [compound 211] is 0.043 µM; for `CS(=O)(=O)c1ccc(OCC(F)(F)C(F)F)c(C(=O)N2CCN(c3ccc(C(F)(F)F)cc3F)CC2)c1` [compound 212] it is 0.029 µM; for `CS(=O)(=O)c1ccc(OCC(F)(F)C(F)F)c(C(=O)N2CCN(c3ccc(C#N)c(F)c3F)CC2)c1` [compound 213] it is 0.021 µM.
The figure for `CS(=O)(=O)c1ccc(OCC(F)(F)C(F)F)c(C(=O)N2CCN(c3c(F)cc(C#N)cc3F)CC2)c1` [compound 215] is 0.049 µM.
Regarding `CS(=O)(=O)c1ccc(OCC2CC2)c(C(=O)N2CCN(c3ccc(Cl)cc3C#N)CC2)c1` [compound 228], half-maximal inhibition (IC50) required 0.047 µM.
Compound `CC(C)(C)Oc1ccc(S(C)(=O)=O)cc1C(=O)N1CCN(c2cc(F)c(C#N)cc2F)CC1` [compound 234] displayed an IC50 of 0.043 µM.
`CC(C)(C)Oc1ccc(S(C)(=O)=O)cc1C(=O)N1CCN(c2ccc(C#N)cc2F)CC1` [compound 244]: the midpoint of inhibition, the IC50, lay at 0.042 µM.
With `CC(C)(C)Oc1ccc(S(C)(=O)=O)cc1C(=O)N1CCN(c2ccc(C(F)(F)F)cc2F)CC1` [compound 247] the figure was 0.03 µM.
`CC(C)(C)Oc1ccc(S(C)(=O)=O)cc1C(=O)N1CCN(c2cc(F)c(S(C)(=O)=O)cc2F)CC1` [compound 249]: the IC50 stood at 0.032 µM.
For `CC(C)(C)Oc1ccc(S(C)(=O)=O)cc1C(=O)N1CCN(c2c(F)cc(S(C)(=O)=O)cc2F)CC1` [compound 250], the IC50 is 0.061 µM.
The compound `CS(=O)(=O)c1ccc(OCC(F)(F)F)c(C(=O)N2CCN(c3ccc(Cl)c(Cl)c3)CC2)c1` [compound 251] had an IC50 of 0.032 µM.
In turn, `CC(=O)c1ccc(N2CCN(C(=O)c3cc(S(C)(=O)=O)ccc3OC3CCCCC3)CC2)c(F)c1` [compound 281] returned a 50% inhibitory concentration (IC50) of 0.021 µM.
As for `CS(=O)(=O)c1ccc(OC2CCCCC2)c(C(=O)N2CCN(c3ccc(C#N)cc3)CC2)c1` [compound 282], half-maximal inhibition (IC50) was put at 0.027 µM.
The compound `CS(=O)(=O)c1ccc(OC2CCCCC2)c(C(=O)N2CCN(c3ccc(C#N)cc3F)CC2)c1` [compound 283] had an IC50 of 0.008 µM.
Take `CS(=O)(=O)c1ccc(OC2CCCCC2)c(C(=O)N2CCN(c3ccc(C#N)c(F)c3)CC2)c1` [compound 284]: the IC50 stood at 0.01 µM.
As to `CS(=O)(=O)c1ccc(OC2CCCCC2)c(C(=O)N2CCN(c3ccc(C(F)(F)F)cc3)CC2)c1` [compound 285], the IC50 turned out to be 0.042 µM.
With `CS(=O)(=O)c1ccc(OC2CCCCC2)c(C(=O)N2CCN(c3ccc(C(F)(F)F)c(F)c3)CC2)c1` [compound 287] the figure was 0.033 µM; with `CS(=O)(=O)c1ccc(N2CCN(C(=O)c3cc(S(C)(=O)=O)ccc3OC3CCCCC3)CC2)c(F)c1` [compound 288], 0.025 µM; with `CC(C)(C)COc1ccc(S(C)(=O)=O)cc1C(=O)N1CCN(c2ccc(C#N)cc2)CC1` [compound 290], 0.017 µM.
With `CC(C)(C)COc1ccc(S(C)(=O)=O)cc1C(=O)N1CCN(c2ccc(C#N)cc2F)CC1` [compound 291], the IC50 came out at 0.013 µM.
`CC(C)(C)COc1ccc(S(C)(=O)=O)cc1C(=O)N1CCN(c2ccc(C#N)c(F)c2)CC1` [compound 292] returned an IC50 of 0.021 µM.
In the case of `CC(C)(C)COc1ccc(S(C)(=O)=O)cc1C(=O)N1CCN(c2ccc(C(F)(F)F)cc2)CC1` [compound 293], the IC50 was found to be 0.034 µM.
With `CC(C)(C)COc1ccc(S(C)(=O)=O)cc1C(=O)N1CCN(c2ccc(C(F)(F)F)cc2F)CC1` [compound 294], the IC50 came to 0.037 µM.
With `CC(C)(C)COc1ccc(S(C)(=O)=O)cc1C(=O)N1CCN(c2ccc(C(F)(F)F)c(F)c2)CC1` [compound 295] the figure was 0.016 µM; with `CC(C)(C)COc1ccc(S(C)(=O)=O)cc1C(=O)N1CCN(c2ccc(S(C)(=O)=O)cc2F)CC1` [compound 296], 0.043 µM.

What is called IC50 is the concentration that gives 50% inhibition.
